Literature values, collected in patent publication US20070185035A1, “ENHANCED MUCOSAL ADMINISTRATION OF NEUROPROTECTIVE PEPTIDES” (Nastech Pharmaceutical Company Inc., priority 2005, published 2007).
Where two headings read alike, the source gives them in different places. Each block holds one compound with its values, some of them ahead of it.

What was measured:
ciliary motility = conditions: without obvious ultrastructural lesions
[1] = anesthetized rats

Compound: 2-alkyl-4-hydroxyquinolines [pyo compound]
concentration producing ciliostasis (ciliary motility): 50 µg/mL

effectiveness in enzyme inhibition relative to bestatin (aminopeptidases): more than 100 times
effectiveness in enzyme inhibition relative to puromycin (aminopeptidases): more than 1000 times
Compound: CC(C)CC(N)B(O)O (centres unmarked) [boro-leucine]

Compound: human growth hormone: human growth hormone given nasally to rats with or without N-acetyl-L-cysteine
nasal bioavailability ([1]; with N-acetyl-L-cysteine (ACS)): 12.2%
nasal bioavailability ([1]; without N-acetyl-L-cysteine): 7.5%
